PubChem BioAssay AID248 (DTP/NCI, 2004)
Values joined by “and” are separate entries in the source; they are usually repeats but may differ in a detail not shown here. Identical values can stand only once. Inconclusive results and toxic doses are left out. No stated cut-off is given here; in the data, active means T/C of 150% or more; inactive means T/C below 125%.

Tested on: L1210 leukemia ip in BDF1 mice, survival T/C
Test: NCI In Vivo Anticancer Drug Screen. Data for tumor model L1210 Leukemia (intraperitoneal) in B6D2F1 (BDF1) mice
Settings: endpoint: mean survival time, higher = longer survival
Procedure, shortened: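 Transplanted-tumor mice were given test agent; controls received vehicle only. Survival readings from the two groups were divided (treated over control).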

[1] = dose: 200.0 mg/kg/injection, schedule: Q01DX001 (ip), vehicle: carboxymethylcellulose (CMC)
[2] = dose: 400.0 mg/kg/injection, schedule: Q01DX001 (ip), vehicle: carboxymethylcellulose (CMC)
[3] = dose: 100.0 mg/kg/injection, schedule: Q04DX002 (ip), vehicle: Klucel (hydroxypropylcellulose) (HPC)
[4] = dose: 200.0 mg/kg/injection, schedule: Q04DX002 (ip), vehicle: Klucel (hydroxypropylcellulose) (HPC)
[5] = dose: 400.0 mg/kg/injection, schedule: Q04DX002 (ip), vehicle: Klucel (hydroxypropylcellulose) (HPC)
[6] = dose: 100.0 mg/kg/injection, schedule: Q04DX003 (ip), vehicle: saline with Tween-80
[7] = dose: 200.0 mg/kg/injection, schedule: Q04DX003 (ip), vehicle: saline with Tween-80
[8] = dose: 400.0 mg/kg/injection, schedule: Q04DX003 (ip), vehicle: saline with Tween-80
[9] = dose: 100.0 mg/kg/injection, schedule: Q01DX001 (ip), vehicle: saline
[10] = dose: 200.0 mg/kg/injection, schedule: Q01DX001 (ip), vehicle: saline
[11] = dose: 400.0 mg/kg/injection, schedule: Q01DX001 (ip), vehicle: saline
[12] = dose: 50.0 mg/kg/injection, schedule: Q01DX009 (ip), vehicle: saline with Tween-80
[13] = dose: 100.0 mg/kg/injection, schedule: Q04DX003 (ip), vehicle: Klucel (hydroxypropylcellulose) (HPC)
[14] = dose: 200.0 mg/kg/injection, schedule: Q04DX003 (ip), vehicle: Klucel (hydroxypropylcellulose) (HPC)
[15] = dose: 400.0 mg/kg/injection, schedule: Q04DX003 (ip), vehicle: Klucel (hydroxypropylcellulose) (HPC)
[16] = dose: 100.0 mg/kg/injection, schedule: Q01DX009 (ip), vehicle: Klucel (hydroxypropylcellulose) (HPC)
[17] = dose: 200.0 mg/kg/injection, schedule: Q01DX009 (ip), vehicle: Klucel (hydroxypropylcellulose) (HPC)
[18] = dose: 400.0 mg/kg/injection, schedule: Q01DX009 (ip), vehicle: Klucel (hydroxypropylcellulose) (HPC)
[19] = dose: 100.0 mg/kg/injection, schedule: Q01DX001 (ip), vehicle: other
[20] = dose: 200.0 mg/kg/injection, schedule: Q01DX001 (ip), vehicle: other
[21] = dose: 400.0 mg/kg/injection, schedule: Q01DX001 (ip), vehicle: other
[22] = dose: 100.0 mg/kg/injection, schedule: Q01DX001 (ip), vehicle: carboxymethylcellulose (CMC)
[23] = dose: 50.0 mg/kg/injection, schedule: Q01DX001 (ip), vehicle: saline

Measured: T/C

O=C(CCl)Nc1ccc(S(=O)(=O)F)cc1
inactive: dose: 12.5 mg/kg/injection, schedule: Q01DX009 (ip), vehicle: carboxymethylcellulose (CMC) 93 % of control | dose: 25.0 mg/kg/injection, schedule: Q01DX009 (ip), vehicle: carboxymethylcellulose (CMC) 88 % of control | dose: 50.0 mg/kg/injection, schedule: Q01DX009 (ip), vehicle: carboxymethylcellulose (CMC) 88 % of control | dose: 100.0 mg/kg/injection, schedule: Q04DX003 (ip), vehicle: carboxymethylcellulose (CMC) 96 % of control

COc1ccc(NC(=O)/C=N/O)c(Cl)c1
inactive: [1] 94 % of control | [2] 90 % of control

CCCCCCCc1nc(N)nc(N2CCOCC2)n1
inactive: [3] 89 % of control | [4] 100 % of control | [5] 110 % of control

CCNC(=S)NNC(=S)NNc1ccccc1
inactive: dose: 12.5 mg/kg/injection, schedule: Q04DX002 (ip), vehicle: other 102 % of control | dose: 25.0 mg/kg/injection, schedule: Q04DX002 (ip), vehicle: other 100 % of control | dose: 50.0 mg/kg/injection, schedule: Q04DX002 (ip), vehicle: other 102 % of control

CC(=O)C(/C=N/C(=O)N(C)C)=C(/C)O
inactive: [6] 98 % of control | [7] 104 % of control | [8] 104 % of control

O=C(CBr)c1cccc2c1cc(Br)c1ccccc12
inactive: dose: 13.3 mg/kg/injection, schedule: Q01DX Z (ip), vehicle: methylcellulose (MC) 94 % of control | dose: 20.0 mg/kg/injection, schedule: Q01DX Z (ip), vehicle: methylcellulose (MC) 93 % of control | dose: 30.0 mg/kg/injection, schedule: Q01DX Z (ip), vehicle: methylcellulose (MC) 100 % of control

CCNC(=O)SCCSC(=O)NCC
inactive: dose: 100.0 mg/kg/injection, schedule: Q01DX009 (ip), vehicle: other 92 % of control | dose: 200.0 mg/kg/injection, schedule: Q01DX009 (ip), vehicle: other 93 % of control | dose: 400.0 mg/kg/injection, schedule: Q01DX009 (ip), vehicle: other 92 % of control

COC(=O)C1CCC(N)CC1 (stereo not drawn)
inactive: [9] 106 % of control and 105 % of control | [10] 104 % of control and 94 % of control | [11] 108 % of control and 96 % of control

Cc1ccc(C(=O)N/N=C/C(CC(O)C(O)CO)=N/NC(=O)c2ccc(C)cc2)cc1 (stereo not drawn)
inactive: dose: 100.0 mg/kg/injection, schedule: Q04DX003 (ip), vehicle: alcohol 93 % of control | dose: 200.0 mg/kg/injection, schedule: Q04DX003 (ip), vehicle: alcohol 96 % of control

CCOc1ccn(CC(=O)c2ccc([N+](=O)[O-])o2)c(=O)n1
inactive: [12] 96 % of control | dose: 100.0 mg/kg/injection, schedule: Q01DX009 (ip), vehicle: saline with Tween-80 94 % of control | [6] 98 % of control | [7] 91 % of control

CN1N=C([P+](c2ccccc2)(c2ccccc2)c2ccccc2)CC1(c1ccccc1)c1ccccc1
inactive: dose: 75.0 mg/kg/injection, schedule: Q01DX001 (ip), vehicle: saline 103 % of control | dose: 150.0 mg/kg/injection, schedule: Q01DX001 (ip), vehicle: saline 100 % of control

COc1cc2c(cc1OC(C)=O)C(=O)CCCC2
inactive: [13] 91 % of control | [14] 97 % of control | [15] 96 % of control

CSc1ccc(C(=NO)c2ccc(SC)cc2)cc1
inactive: [16] 95 % of control | [13] 101 % of control | [17] 103 % of control | [14] 94 % of control | [18] 95 % of control | [15] 103 % of control

CCOC(=O)Cc1cc(=O)c2ccc(Cl)cc2[nH]1
inactive: [19] 92 % of control | [20] 97 % of control | [21] 92 % of control

O=C(CBr)CCS(=O)(=O)c1ccc(Cl)cc1
inactive: dose: 5.0 mg/kg/injection, schedule: Q01DX009 (ip), vehicle: saline with Tween-80 102 % of control | dose: 5.0 mg/kg/injection, schedule: Q04DX003 (ip), vehicle: saline with Tween-80 101 % of control | dose: 10.0 mg/kg/injection, schedule: Q01DX009 (ip), vehicle: saline with Tween-80 104 % of control | dose: 10.0 mg/kg/injection, schedule: Q04DX003 (ip), vehicle: saline with Tween-80 103 % of control | dose: 20.0 mg/kg/injection, schedule: Q01DX009 (ip), vehicle: saline with Tween-80 97 % of control | dose: 20.0 mg/kg/injection, schedule: Q04DX003 (ip), vehicle: saline with Tween-80 97 % of control

N#Cc1ccc2c(c1)Cc1cc([N+](=O)[O-])ccc1-2
inactive: [22] 100 % of control | [1] 105 % of control | [2] 91 % of control

CCOC(=O)c1cnc(SC)nc1NCCc1ccccc1
inactive: [16] 98 % of control | [17] 91 % of control | [18] 95 % of control

C=C(Cl)CNCC
inactive: dose: 12.5 mg/kg/injection, schedule: Q01DX009 (ip), vehicle: saline with Tween-80 91 % of control | dose: 25.0 mg/kg/injection, schedule: Q01DX009 (ip), vehicle: saline with Tween-80 97 % of control | [12] 119 % of control

N#Cc1ccc(Cl)c2c1C(=O)c1ccccc1C2=O
inactive: [9] 98 % of control | dose: 100.0 mg/kg/injection, schedule: Q01DX009 (ip), vehicle: saline 100 % of control | [10] 98 % of control | dose: 200.0 mg/kg/injection, schedule: Q01DX009 (ip), vehicle: saline 94 % of control | [11] 95 % of control | dose: 400.0 mg/kg/injection, schedule: Q01DX009 (ip), vehicle: saline 92 % of control

COc1cc(Cl)ccc1NC(=O)Oc1ccc(C=O)cc1OC
inactive: [3] 101 % of control | [4] 90 % of control | [5] 93 % of control

CC(=O)Nc1nc2[nH]ccc2c(=O)[nH]1
inactive: dose: 75.0 mg/kg/injection, schedule: Q01DX001 (ip), vehicle: other 106 % of control | dose: 150.0 mg/kg/injection, schedule: Q01DX001 (ip), vehicle: other 104 % of control | dose: 300.0 mg/kg/injection, schedule: Q01DX001 (ip), vehicle: other 103 % of control

C=C1C(=O)OCC2(C)CCCCC12 (stereo not drawn)
inactive: dose: 10.0 mg/kg/injection, schedule: Q04DX003 (ip), vehicle: saline 101 % of control | dose: 20.0 mg/kg/injection, schedule: Q04DX003 (ip), vehicle: saline 116 % of control

CC(O)(c1cccc(Cl)c1)C(c1ccccc1)c1ccccn1 (stereo not drawn)
inactive: [6] 101 % of control and 100 % of control | [7] 92 % of control and 106 % of control | [8] 101 % of control and 106 % of control

O=Cc1cccn1-c1ccc2ncccc2c1[N+](=O)[O-]
inactive: dose: 50.0 mg/kg/injection, schedule: Q04DX002 (ip), vehicle: Klucel (hydroxypropylcellulose) (HPC) 90 % of control | [3] 111 % of control | [4] 93 % of control

Nc1ccccc1S.[Ag]
inactive: [23] 95 % of control | [9] 86 % of control | [10] 91 % of control | [11] 91 % of control

Cc1cc(C)c2[nH]c(=O)c(C)c(C)c2c1
inactive: [19] 104 % of control | [20] 95 % of control | [21] 95 % of control

COC(=O)c1ccc2cc(OC)cc([N+](=O)[O-])c2n1
inactive: dose: 50.0 mg/kg/injection, schedule: Q01DX001 (ip), vehicle: carboxymethylcellulose (CMC) 87 % of control | [22] 93 % of control | [1] 102 % of control | [2] 93 % of control

O=[N+]([O-])c1cc(/C=N/Nc2nnc(N/N=C/c3ccc(Cl)c([N+](=O)[O-])c3)c3ccccc23)ccc1Cl
inactive: [23] 106 % of control | [9] 96 % of control | [10] 100 % of control | [11] 100 % of control

O=S(=O)(F)c1cc(Cl)c(O)c(S(=O)(=O)F)c1
inactive: [16] 101 % of control

CS(=O)(=O)c1nc2[nH]c(=O)[nH]c(=O)c2cc1C#N
inactive: dose: 25.0 mg/kg/injection, schedule: Q01DX001 (ip), vehicle: Klucel (hydroxypropylcellulose) (HPC) 93 % of control | dose: 50.0 mg/kg/injection, schedule: Q01DX001 (ip), vehicle: Klucel (hydroxypropylcellulose) (HPC) 98 % of control | dose: 100.0 mg/kg/injection, schedule: Q01DX001 (ip), vehicle: Klucel (hydroxypropylcellulose) (HPC) 97 % of control
